The source of these data is patent US7713923B2, “Self-assembling peptides incorporating modifications and methods of use thereof” (Massachusetts Institute of Technology, priority 2003, dated 2010).

The nature of data set [1]: Circular dichroism (secondary structure). The note with it: 25 μM peptide in water, room temperature, 195-250 nm. Format: physicochemical. Here is the method:
Circular dichroism (DC). CD spectra were gathered on an Aviv model 202 spectropolarimeter. Samples were prepared by diluting stock peptide solutions in water (0.5%) to a working concentration of 25 μM. Samples were analysed at room temperature in a quartz cuvette with a path length of 0.3 cm and in the wavelength range 195-250 nm.
Circular dichroism. CD spectra were obtained for each peptide sequence to assess its secondary structure. The secondary structure identifies ordered structures within a polypeptide such as α-helices and β-sheets. […] (Havel, 1996).
(In general: CD spectra are sensitive to the conformation of chiral molecules.)

Data set [2] deals with human aortic endothelial cells (HAEC). Put plainly: HAEC monolayer formation on peptide scaffolds. It is filed as cell-based. Also on record: key to HAEC monolayer formation, peptide content 100% / HAEC monolayer formation, Blending (9:1): +: Score for optimal monolayer formation and cell survival; −: Score for poor or none monolayer formation and cell survival. The note with it: for HAEC monolayer formation, Blending (9:1): RAD16-I: peptide sequence at a ratio 9:1 (v/v); for HAEC monolayer formation, peptide content 100%: scaffold of 100% peptide, 0.5% (w/v); for HAEC monolayer formation, peptide blends: 9:1 RAD16-I:modified peptide, seeded subconfluent (~30%). Here is the method:
Endothelial cell culture system. Peptide scaffolds (0.5% w/v) were prepared at 100% peptide sequence for RAD16-I or blended with RAD16-I at a radio of 9:1 (RAD16-I: peptide sequence, on a volume/volume basis) for the three other cases (YIG, RYV, and TAG). Each solution was filtered (0.2 μm, Acrodysc filters, 4192, PALL, MI), loaded (30 μl) on top of a cell culture chamber insert (10 mm diameter, 136935, Nalge Nunc International, IL), and allowed to form a layer (average thickness=600 μm). Phosphate Buffer Saline (PBS) (600 μl) was added at the bottom of the well to induce hydrogel formation, and the system was incubated at room temperature for 30 min. PBS was replaced with culture medium, which was then replaced with fresh medium. The scaffolds were incubated for 1 hour with endothelial cell growth media (EGM-2, Cambrex, MD) in a cell culture incubator at 37° C. with 5% CO2.
(§1) Meanwhile, human aortic endothelial cells (HAEC) (CC-2535, Cambrex, MD) that had been maintained under standard culture conditions (passage 5-6) were harvested at 80% confluence using trypsin and loaded on top of the preformed peptide scaffolds at a cell density of 8×10^4 cells/cm^2 and cultured in the cell culture incubator at 37° C. with 5% CO2. Cell attachment assays were performed one hour after the initial cell loading. To perform the assays, the covering media was removed, and unattached cells were counted on a hematocytometer. Cell counting was performed by mechanically disrupting the scaffold containing cells by pipetting up and down and then counting cells on a hematocytometer after performing Trypan blue (T 9906, Sigma, MO) exclusion assay staining to assess cell viability. In some experiments, for comparison, EC were cultured on inserts coated with Matrigel or collagen (1.5 mg/ml, i.e. 0.15%) according to standard protocols.
In a first experiment, we tested the ability of HAEC to attach and form a monolayer when seeded on various peptide scaffolds generated by self-assembly of the peptides following addition of PBS to a 0.5%(w/v) solution of the peptide in water. […] HAEC cultured in the presence of scaffolds generated from peptides incorporating the other biologically active peptide motifs either died or formed isolated clusters (FIGS. 9A-9G).
We therefore decided to blend the peptides incorporating biologically active motifs with the prototypic RAD16-I sequence in order to reduce the overall concentration of the biologically active motif presented to cells. We selected a volume/volume ratio of 9:1 (RAD16-I:modified peptide sequence comprising biologically active peptide motif, where peptides were dissolved at equal concentrations on a w/w basis) and generated peptide scaffolds from solutions in which the unmodified and modified peptides were present in this ratio.

Data set [3] has the same test system. Put plainly: HAEC attachment assay on peptide scaffolds. Format: cell-based. The following applies: after one hour; modified peptides as 9:1 blends with RAD16-I. As for the experimental part: as §1
Data set [4] has the same test system. Put plainly: NO release determination (Griess method). Format: cell-based. The following applies: nitrite in culture supernatant; RAD16-I 100%, others 9:1 blend. Here is the method:
NO release determination. Nitric oxide (NO) release was estimated by measuring nitrites (NOx) by the Griess method. Briefly, the media was replaced after the third day of culture by new media without fetal bovine serum (FBS) or ascorbic acid. The next day, the media was used to analyze NO release using a commercially available kit (482702, Calbiochem, CA) following the manufacturer instructions. Each condition was tested in triplicate.

For another data set, the system named is chondrocytes. The note with it: encapsulated cells; cited from earlier work.
Data set [5] relates to PC12 cells, endothelial cells, heparin. The following applies: cited from earlier work.

Take `CC(=O)N1CCC[C@H]1C(=O)N[C@@H](CC(=O)O)C(=O)N[C@@H](CO)C(=O)NCC(=O)N[C@@H](CCCNC(=N)N)C(=O)NCC(=O)NCC(=O)N[C@@H](CCCNC(=N)N)C(=O)N[C@@H](C)C(=O)N[C@@H](CC(=O)O)C(=O)N[C@@H](C)C(=O)N[C@@H](CCCNC(=N)N)C(=O)N[C@@H](C)C(=O)N[C@@H](CC(=O)O)C(=O)N[C@@H](C)C(=O)N[C@@H](CCCNC(=N)N)C(=O)N[C@@H](C)C(=O)N[C@@H](CC(=O)O)C(=O)N[C@@H](C)C(=O)N[C@@H](CCCNC(=N)N)C(=O)N[C@@H](C)C(=O)N[C@@H](CC(=O)O)C(=O)N[C@@H](C)C(N)=O` [PDS, AcN-PDSGR-GG-(RADA)4-CONH2]: the “Secondary structure (CD)” value in data set [1] is reported as “β-sheet”. In data set [2], the “HAEC monolayer formation, Blending (9:1)” value is listed as “−” and the “HAEC monolayer formation, peptide content 100%” value is “−”.

Regarding `CC[C@H](C)[C@H](NC(=O)[C@H](Cc1ccc(O)cc1)NC(C)=O)C(=O)NCC(=O)N[C@@H](CO)C(=O)N[C@@H](CCCNC(=N)N)C(=O)NCC(=O)NCC(=O)N[C@@H](CCCNC(=N)N)C(=O)N[C@@H](C)C(=O)N[C@@H](CC(=O)O)C(=O)N[C@@H](C)C(=O)N[C@@H](CCCNC(=N)N)C(=O)N[C@@H](C)C(=O)N[C@@H](CC(=O)O)C(=O)N[C@@H](C)C(=O)N[C@@H](CCCNC(=N)N)C(=O)N[C@@H](C)C(=O)N[C@@H](CC(=O)O)C(=O)N[C@@H](C)C(=O)N[C@@H](CCCNC(=N)N)C(=O)N[C@@H](C)C(=O)N[C@@H](CC(=O)O)C(=O)N[C@@H](C)C(N)=O` [YIG, AcN-YIGSR-GG-(RADA)4-CONH2], the “Secondary structure (CD)” value in data set [1] is on record as “β-sheet”. Further, the “HAEC monolayer formation, scaffold of 100% peptide” value in data set [2] (0.5% (w/v) peptide, no blending) is reported as “able to support the formation of a monolayer”. For the same compound, in data set [2], the “HAEC monolayer formation, peptide blends” value is “readily supported monolayer formation”; the “HAEC monolayer formation, Blending (9:1)” value was “+”; the “HAEC monolayer formation, peptide content 100%” value is recorded as “+”. For the same compound, the “HAEC attachment to the surface” value in data set [3] is given as about 100%. The “nitric oxide (NO) release by HAEC” value in data set [4] is on record as “promote NO release”.

In the case of “Ac-KAFDITYVRLKFGGRADARADARADARADA-NH2 [KAF, AcN-KAFDITYVRLKF-GG-(RADA)4-CONH2]”, in data set [1], the “Secondary structure (CD)” value is reported as “random coil”. Moreover, in data set [2], the “HAEC monolayer formation, Blending (9:1)” value is listed as “−” and the “HAEC monolayer formation, peptide content 100%” value is listed as “−”.

In the case of “Ac-RYVVLPRGGRADARADARADARADA-NH2 [RYV, AcN-RYVVLPR-GG-(RADA)4-CONH2]”, the “Secondary structure (CD)” value in data set [1] is “β-sheet”. Besides, in data set [2], the “HAEC monolayer formation, peptide blends” value is “readily supported monolayer formation”; the “HAEC monolayer formation, Blending (9:1)” value is “+”; the “HAEC monolayer formation, peptide content 100%” value was “−”. Besides, the “HAEC attachment to the surface” value in data set [3] is on record as about 100%. Further, the “nitric oxide (NO) release by HAEC” value in data set [4] is given as “inhibits NO release”.

Turning to “Ac-TAGSCLRKFSTMGGRADARADARADARADA-NH2 [TAG, AcN-TAGSCLRKFSTM-GG-(RADA)4-CONH2]”, the “Secondary structure (CD)” value in data set [1] is “β-sheet”. In addition, in data set [2], the “HAEC monolayer formation, peptide blends” value is reported as “readily supported monolayer formation”; the “HAEC monolayer formation, Blending (9:1)” value is reported as “+”; the “HAEC monolayer formation, peptide content 100%” value was “−”. For the same compound, the “HAEC attachment to the surface” value in data set [3] is reported as about 100%. Besides, the “nitric oxide (NO) release by HAEC” value in data set [4] is listed as “promote NO release”.

With “AcN-KLDLKLDLKLDL-CONH2 (Ac-KLDLKLDLKLDL-NH2) [KLD12]”, in the data set on chondrocytes, the “chondrocyte phenotype in hydrogel” value is “retained their morphology and developed a cartilage-like, mechanically functional ECM rich in proteoglycans and type-II collagen”.

CSRARKQAASIKVAVSADR: the Biological activity result in data set [5] was “vessel formation”.

With KAFDITYVRLKF, the Biological activity entry in data set [5] is “neurite outgrowth”.

As to PDGSR, in data set [5], the Biological activity entry was “Cell adhesion”.
